Common to all, as to type: cell-based
For assay [1], the system named is Bacillus subtilis BKM B-501. As to the kind of experiment: Antibacterial activity, serial dilutions in liquid MH medium. To be noted: for MIC: MH medium, 20 h, 37° C., 100% growth inhibition; for MBC: no colonies on agarized MH medium. Here is the method:
(§1) The antibacterial activity of the compounds was determined against strains of gram-positive bacteria such as Staphylococcus aureus 209P, Enterococcus faecalis BKM B-871, Micrococcus luteus BKM Ac-2230, Bacillus subtilis BKM B-501, and gram-negative bacteria such as Pseudomonas aeruginosa PAO1 and Escherichia coli KM MGU C-600. BKM strains were acquired from the All-Russia Collection of Microorganisms at the Institute for Biochemistry and Physiology of Microorganisms, Russian Academy of Sciences. Strain Staphylococcus aureus 209P was acquired from the Collection of Microorganisms at the Department of microbiology of the Faculty of Biology of Lomonosov Moscow State University, and Pseudomonas aeruginosa PAO1 was acquired from the Collection of Microorganisms at the Institute of Bioorganic Chemistry of the Russian Academy of Sciences.
(§2) The main parameters characterizing the antibacterial activity are the minimal inhibitory concentration (MIC) and minimal bactericidal concentration (MBC). […] MBC is the least concentration that causes the death of all cells.
(§3) MIC was quantified by inhibiting culture growth in a liquid medium with serial dilutions of compounds using a modified procedure [Amsterdam, D., 1966. “Susceptibility testing of antimicrobials in liquid media,” pp. 52-111. In Loman, V., ed. Antibiotics in laboratory medicine, 4th ed. Williams and Wilkins, Baltimore].
(§4) Bacteria were cultured and tested on an MH liquid medium (Mueller-Hinton medium: a dry extract of beef broth, 4 g/L; starch, 1.5 g/L; casein hydrolyzate, 17.5 g/L; Sigma-Fluka Catalog No. 70192) at 37° C., 100% humidity, and under stirring. Cultures (within 4 to 7 passages after thawing) in the exponential growth phase were used for tests.
(§5) All tested compounds absorb light at 595 nm, a wavelength used for evaluating bacterial culture growth. Therefore, a correction for absorption was applied in estimating the optical density of bacterial suspensions for each compound with account for its concentration in the well. Bacterial growth inhibition (GI) as percentage after 20 hours of incubating cells with compounds was derived from the optical density (A) measured in every well at a wavelength of 595 nm using the equation: GIi=[(Act−Ac0)−(Ait−Ai0)]×100/(Act−Ac0), (1) wherein the subscripts have the following meanings: i denotes the well number, c denotes a control well with bacteria whereto the tested compound is not inserted, 0 refers to the measurement taken immediately once the tested compound was inserted to the well, and t refers to the measurement taken 20 hours after the compound was inserted.
(§6) The protocol for the determination of experimental antibacterial activity of the tested compounds was as follows. A cryovial with the test strain culture in a medium with 7% DMSO stored in liquid nitrogen, was rapidly defrosted, and 1.5 mL of the fresh MH medium was inoculated with 100 μL of the cell suspension. Cells were grown for one day at 37° C. and stirred on an orbital shaker at 150 rpm. The morphologic features of the strain and the absence of contamination with foreign bacteria were verified by: (a) inoculation on an agarized (15 g/L agar) MH medium and observation of the shape and color of the grown colonies and (b) examination of characteristic morphologic features under a microscope (Mikmed-2, LOMO, Russia) equipped with a 40× objective lens. Further, the bacteria were cultured in 1 mL of the liquid MH medium at 37° C. under stirring. The cells were reseeded every day. Cell cultures were used in tests starting with 3rd reseeding and ending with 6th one.
(§7) For testing, 5 μL of a bacterial suspension in the stationary growth phase was transferred to 1 mL of a sterile MH medium and incubated until the exponential growth phase was attained (3 to 5 h, 37° C., stirring at 150 rpm). To estimate the microorganism concentration, the optical density (A) of the resulting bacterial culture was measured at a wavelength of 595 nm. […]

For assay [2], the system named is Micrococcus luteus BKM Ac-2230. The description is as above. To be noted: for MIC: MH medium, 20 h, 37° C., 100% growth inhibition; for MBC: no colonies on agarized MH medium. Here is the method: as §1, §2, §3, §4, §5, §6, §7
Assay [3] has as its system Staphylococcus aureus 209P. Described as above. To be noted: for MIC: MH medium, 20 h, 37° C., 100% growth inhibition; for MBC: no colonies on agarized MH medium. Here is the method: as §1, §2, §3, §4, §5, §6, §7
Assay [4] concerns Staphylococcus aureus No. 3797 (MRSA). As to the kind of experiment: Antibacterial specific activity, twofold dilutions, visual growth evaluation. The following applies: St. aur No. 3797 MRSA; 36° C., 24 hours. Here is the method:
(§8) The specific activity of compounds also was determined against bacteria strains such as Staphylococcus aureus No. 25923 ATCC (American Type Culture Collection); Staphylococcus aureus No. 100 KC; Staphylococcus epidermidis No. 533; Enterococcus faecalis No. 559; Enterococcus faecium No. 569, Staphylococcus aureus No. 5 (MRSA), Staphylococcus aureus No. 3797 (MRSA). Staphylococcus aureus was cultured on the Trypticase Soy Agar (BBL) commercially available dry medium. Enterococcus faecalis was cultured on the Columbia Agar (BBL) commercially available dry medium. These media were sterilized by autoclaving at 121° C. for 15 min. Bacterial inoculum was constant and was 5×10^5 CFU/ml (10^5 CFU/0.2 ml). For water-soluble compounds, wells from 2nd through 8th were added with the solvent (water) in an amount of 15 μL per well, then the 1st well was added with 30 μL of the stock solution of the tested compound in […] with a concentration of […], and the concentration was adjusted to 0.007×10^3 M by serial twofold dilutions. A 10-μL portion was taken from every well, and 190 μL of the bacterial culture (10^5 CFU) was added per well. For DMSO-soluble compounds, wells from 2nd through 8th were added with the solvent (DMSO) in an amount of 10 μL per well, then the 1st well was added with 20 μL of the stock solution of the tested compound in […] with a concentration of […], and the concentration was adjusted to 0.039×10^3 M by serial twofold dilutions. A 2-μL portion was taken from each well, and 198 μL of the bacterial culture (10^5 CFU) was added per well.
(§9) The control comprised wells free of tested compounds (culture growth control). In addition, purity control of nutritional media and solvents was used. Plates were incubated in a thermostat at 36° C. for 24 hours.
(§10) Culture growth was evaluated visually by comparison of how microorganisms grew in the presence of tested compounds and in the absence of them. MIC was set equal to the last dilution of a tested agent which suppressed bacterial culture growth.

In assay [5] the test system is Vancomycin-resistant Enterococcus faecium 569. The assay is described as above. The following applies: Vancomycin-resistant E. faecium 569; 36° C., 24 hours. Here is the method:
as §8, §9, §10

The test system of assay [6] is Enterococcus faecalis No. 559. The assay is described as above. To be noted: E. faecalis 559; 36° C., 24 hours. As for the experimental part:
as §8, §9, §10

The test system of assay [7] is Staphylococcus aureus No. 5 (MRSA). Described as above. To be noted: St. aur No. 5 MRSA; 36° C., 24 hours. As for the experimental part:
as §8, §9, §10

Assay [8] has as its system Staphylococcus aureus No. 25923 ATCC. Described as above. The following applies: S. aureus 25923; 36° C., 24 hours. As for the experimental part: as §8, §9, §10
Assay [9] deals with Staphylococcus epidermidis No. 533. The assay is described as above. To be noted: S. epidermis 533; 36° C., 24 hours. Here is the method:
as §8, §9, §10

For assay [10], the system named is Escherichia coli 4300. The description is as above. To be noted: E. coli 4300; 36° C., 24 hours. As for the experimental part: [Worded in the source for another organism; this organism is reported under the same test.] as §8, §9, §10
Assay [11] relates to Staphylococcus aureus No. 100 KC. Described as above. The following applies: S. aureus 100 KC; 36° C., 24 hours. As for the experimental part: as §8, §9, §10
In assay [12] the test system is Enterococcus faecalis BKM B-871. As to the kind of experiment: Antibacterial activity, serial dilutions in liquid MH medium. To be noted: for MIC: MH medium, 20 h, 37° C., 100% growth inhibition; for MBC: no colonies on agarized MH medium. As for the experimental part: as §1, §2, §3, §4, §5, §6, §7

Marks after values point to notes of the source that are not given here. Bounds are passed on as bounds.

One may read the MIC as the least concentration at which growth counts as inhibited. A high value points to a less susceptible organism. In general, MBC refers to the lowest tested concentration that kills the bacteria rather than only halting them. On to “6,7-bis-(N^α-Glycyl]-Protohemin (IX) [VII]”, for which the MIC in assay [1] was 25 µM; in assay [2], 12.5 µM; in [3], 50 µM; in [4], 6.25 µM; in assay [5] it was over 50.0 µM; in assay [6], over 50.0 µM. In addition, the MIC in [7] was 6.25 µM; in assay [8] it was 2.6 µM; in assay [9], 6.25 µM; in [10] it was over 50.0 µM; in assay [11], 12.5 µM. In addition, the MBC in assay [1] and in assay [2] was 25 µM each time.
For the compound `C=CC1=C(C)C2=Cc3c(C=C)c(C)c4[n]3[Fe]([Cl])[n]3c(c(C)c(CCC(=O)N[C@@H](CO)C(=O)OC)c3=CC3=NC(=C4)C(C)=C3CCC(=O)N[C@@H](CO)C(=O)OC)=CC1=N2` [XVIII, reference compound], the MIC in [1] is 6.3 µM; in [2], 6.3 µM; in [3] it was 25 µM; in [12], 12.5 µM. For the same compound, the MBC in assay [1] came to 9 µM; in assay [2], 12.5 µM; in [3] it was 200 µM; in assay [12], 25 µM.
With `C=CC1=C(C)C2=Cc3c(C=C)c(C)c4[n]3[Fe]([Cl])[n]3c(c(C)c(CCC(=O)NCC(=O)OC)c3=CC3=NC(=C4)C(C)=C3CCC(=O)NCC(=O)OC)=CC1=N2` [XVII, reference compound], the MIC in assay [1] is 12.5 µM; in [2], 1.6 µM; in assay [3] it was 50 µM; in [12] it was 100 µM; in assay [5], over 50 µM; in assay [6], 25 µM. Also, the MIC is 25 µM in [8], 25 µM in assay [9], over 50 µM in [10] and over 50 µM in assay [11]. Moreover, the MBC in assay [1] is 25 µM; in assay [2], 6.5 µM; in [3], 50 µM; in [12], >200** μM.
Consider “6,7-bis-[(Amide N^α-L-Seryl)-L-Arginyl]-Protohemin (IX) [XX]”, for which the MIC in assay [4] amounted to 1.3 µM; in [5], 6.25 µM; in assay [6], 1.56 µM; in assay [7], 3.12 µM; in [8] it was 1.3 µM; in assay [9] it was 1.56 µM. The MIC in [10] was over 50.0 µM; in assay [11] it was 0.65 µM.
“6,7-bis-[(Amide N^α-L-Arginyl)-L-Seryl]-Protohemin (IX) [XXIII]”: the MIC in assay [4], in assay [5], in assay [6], in assay [7], in assay [8] and in assay [9] was over 50.0 µM in each case. Further, the MIC in assay [10] and in assay [11] was over 50.0 µM throughout.
For `C=CC1=C(C)C2=Cc3c(C=C)c(C)c4[n]3[Fe]([Cl])[n]3c(c(C)c(CCC(=O)N[C@@H](CCC(=O)N[C@@H](CCCNC(=N)N)C(=O)OC)C(=O)N[C@@H](CCCNC(=N)N)C(=O)OC)c3=CC3=NC(=C4)C(C)=C3CCC(=O)N[C@@H](CCC(=O)N[C@@H](CCCNC(=N)N)C(=O)OC)C(=O)N[C@@H](CCCNC(=N)N)C(=O)OC)=CC1=N2` [XVI, reference compound], the MIC was 1.6 µM in assay [1], 3.1 µM in assay [2], 6.3 µM in assay [3] and 12.5 µM in assay [12]. Besides, the MBC in assay [1] is >200** μM; in assay [2], 12.5 µM; in assay [3], >200** μM; in [12], >200** μM.
For the compound “6,7-bis-[(Methyl Ester N^α-L-Seryl)-L-Arginyl]-Protohemin (IX) [XIX]”, the MIC in assay [4] is 1.3 µM; in assay [5] it was 6.25 µM; in assay [6] it was 1.3 µM; in assay [7], 1.56 µM; in assay [8], 0.65 µM; in [9], 1.3 µM. The figures for the MIC in assay [10] and in [11] were over 50.0 µM and 0.78 µM, respectively.
For the compound `C=CC1=C(C)C2=Cc3c(C=C)c(C)c4[n]3[Fe]([Cl])[n]3c(c(C)c(CCC(=O)N[C@@H](CCCNC(=N)N)C(=O)OC)c3=CC3=NC(=C4)C(C)=C3CCC(=O)N[C@@H](CCCNC(=N)N)C(=O)OC)=CC1=N2` [XV, reference compound], the MIC in assay [1] was 3.1 µM; in [2] it was 1.6 µM; in assay [3], 50 µM; in [12], 50 µM; in assay [5], over 50 µM; in assay [6], 25 µM. Moreover, the MIC in assay [8] was 25 µM; in assay [9] it was 25 µM; in assay [10], over 50 µM; in [11] it was 50 µM. Also, the MBC in [1] worked out at 3.1 µM; in assay [2], 3.2 µM; in assay [3], 200 µM; in assay [12], 400 µM.
On to “6,7-bis-[(N^α-L-Arginyl)-L-Seryl]-Protohemin (IX) [XXIV]”, for which the MIC in [4] is 25 µM; in assay [5], 6.25 µM; in [6] it was over 50.0 µM; in [7], 25 µM; in assay [8], over 50.0 µM; in [9], 2.60 µM. For the same compound, the MIC in assay [10] was over 50.0 µM; in [11], 5.20 µM.
